# ChEMBL document CHEMBL1201862, “PubChem BioAssay data set” (2004)
# Active and inactive are the calls of the source.
# Key:
# [1] = target: Mitogen-activated protein kinase 10 (Homo sapiens, UniProt P53779); assay: Dose response biochemical screening assay for inhibitors of c-Jun N-Terminal Kinase 3 (JNK3). [Related pubchem assays: 746 ]
# Cytochrome P450 2C9 = Cytochrome P450 2C9 (Homo sapiens, UniProt P11712)
# Ephrin type-A receptor 4 = Ephrin type-A receptor 4 (Mus musculus, UniProt Q03137); assay: inhibitors of EphA4 binding to KYL peptide, primary screen, biochemical, colorimetric, mouse EphA4 (AID 689); type: functional
# Ephrin type-A receptor 4, sequence (Q03137 whole entry, the tested form may be a part): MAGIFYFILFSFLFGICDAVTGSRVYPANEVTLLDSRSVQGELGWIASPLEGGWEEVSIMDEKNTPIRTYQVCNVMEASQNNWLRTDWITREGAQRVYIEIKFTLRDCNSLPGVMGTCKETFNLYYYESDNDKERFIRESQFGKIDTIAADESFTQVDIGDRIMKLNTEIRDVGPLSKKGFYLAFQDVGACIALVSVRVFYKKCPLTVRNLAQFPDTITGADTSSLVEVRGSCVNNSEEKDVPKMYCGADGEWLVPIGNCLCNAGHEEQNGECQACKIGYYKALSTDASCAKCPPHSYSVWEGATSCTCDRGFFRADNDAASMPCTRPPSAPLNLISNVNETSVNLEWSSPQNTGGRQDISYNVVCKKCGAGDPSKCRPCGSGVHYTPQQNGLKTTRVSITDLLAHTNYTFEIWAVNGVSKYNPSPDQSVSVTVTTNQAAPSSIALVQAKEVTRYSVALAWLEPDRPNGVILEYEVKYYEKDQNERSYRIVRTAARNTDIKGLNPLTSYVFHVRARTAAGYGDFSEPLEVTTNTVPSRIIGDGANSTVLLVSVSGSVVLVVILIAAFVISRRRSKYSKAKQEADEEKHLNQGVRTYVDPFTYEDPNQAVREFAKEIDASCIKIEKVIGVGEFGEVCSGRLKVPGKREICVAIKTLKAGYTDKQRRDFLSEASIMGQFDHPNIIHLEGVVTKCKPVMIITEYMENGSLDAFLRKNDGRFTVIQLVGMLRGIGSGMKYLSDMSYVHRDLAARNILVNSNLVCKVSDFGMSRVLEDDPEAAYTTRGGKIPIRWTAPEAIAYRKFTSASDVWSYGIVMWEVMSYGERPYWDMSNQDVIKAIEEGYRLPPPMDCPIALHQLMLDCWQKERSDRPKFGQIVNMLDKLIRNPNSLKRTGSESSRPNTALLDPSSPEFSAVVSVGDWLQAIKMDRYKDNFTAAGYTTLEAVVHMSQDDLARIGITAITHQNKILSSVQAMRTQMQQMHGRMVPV
# [2] = target: T1, RNA-binding protein pos-1 (Caenorhabditis elegans, UniProt G5EF15); assay: inhibitors of POS-1/mex-3 RNA binding, dose response, biochemical, fluorescence polarization (AID 1964);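 also: purified POS-1 fused to maltose binding protein made in E. coli; potency of compounds blocking POS-1 binding to fluorescent RNA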
# T1 sequence (G5EF15 whole entry): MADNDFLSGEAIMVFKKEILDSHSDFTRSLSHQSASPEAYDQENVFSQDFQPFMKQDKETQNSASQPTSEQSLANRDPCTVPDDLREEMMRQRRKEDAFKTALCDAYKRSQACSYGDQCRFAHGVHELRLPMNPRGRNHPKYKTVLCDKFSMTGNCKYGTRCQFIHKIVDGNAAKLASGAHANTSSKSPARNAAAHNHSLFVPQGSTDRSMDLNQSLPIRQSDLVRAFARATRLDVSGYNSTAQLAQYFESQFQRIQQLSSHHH
# [3] = target: T2, Zinc finger protein mex-5 (Caenorhabditis elegans, UniProt Q9XUB2); assay: MEX-5/TCR-2 RNA interaction inhibitors, dose response, biochemical, C. elegans, fluorescence polarization (AID 1960)
# T2 sequence (Q9XUB2 whole entry): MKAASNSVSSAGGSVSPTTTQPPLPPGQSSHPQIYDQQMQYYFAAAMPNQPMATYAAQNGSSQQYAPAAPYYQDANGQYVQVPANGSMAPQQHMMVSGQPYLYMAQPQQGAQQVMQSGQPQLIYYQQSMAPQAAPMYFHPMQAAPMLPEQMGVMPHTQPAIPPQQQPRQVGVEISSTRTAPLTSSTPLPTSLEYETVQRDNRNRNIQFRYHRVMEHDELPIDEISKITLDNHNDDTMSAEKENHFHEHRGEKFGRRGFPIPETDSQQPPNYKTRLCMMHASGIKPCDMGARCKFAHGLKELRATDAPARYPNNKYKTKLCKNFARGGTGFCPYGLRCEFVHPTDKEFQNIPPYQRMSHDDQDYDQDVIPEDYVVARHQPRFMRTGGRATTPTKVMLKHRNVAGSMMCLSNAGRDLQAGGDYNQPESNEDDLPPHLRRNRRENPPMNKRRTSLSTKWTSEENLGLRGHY
# [4] = target: T3, Heat shock factor protein 1 (Mus musculus, UniProt P38532); assay: inhibition of MG132-induced HSE-luciferase signal, confirmation, cell-based, NIH3T3, luminescence, dose retest (AID 2382); type: functional;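 also: NIH3T3 fibroblasts with HSF1-driven luciferase reporter stressed by proteasome inhibitor MG132; luminescence from HSF1-driven luciferase expression after 8 hours of MG132 stress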
# T3 sequence (P38532 whole entry): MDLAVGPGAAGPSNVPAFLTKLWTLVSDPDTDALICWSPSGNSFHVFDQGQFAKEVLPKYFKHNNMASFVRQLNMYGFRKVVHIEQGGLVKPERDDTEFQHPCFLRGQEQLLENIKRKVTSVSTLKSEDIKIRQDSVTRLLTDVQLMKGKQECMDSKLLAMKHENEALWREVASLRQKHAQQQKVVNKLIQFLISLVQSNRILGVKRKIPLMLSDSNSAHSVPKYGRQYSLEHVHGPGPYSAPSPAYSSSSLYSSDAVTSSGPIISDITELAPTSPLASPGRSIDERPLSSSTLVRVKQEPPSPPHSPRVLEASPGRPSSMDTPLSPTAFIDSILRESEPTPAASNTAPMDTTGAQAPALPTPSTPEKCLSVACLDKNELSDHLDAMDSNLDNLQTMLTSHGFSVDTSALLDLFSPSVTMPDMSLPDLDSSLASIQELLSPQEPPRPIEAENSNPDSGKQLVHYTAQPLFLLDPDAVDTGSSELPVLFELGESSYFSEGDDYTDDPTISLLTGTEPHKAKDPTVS
# [5] = inhibitors of intracellular T. cruzi replication, confirmation, NIH3T3 host cells, beta-gal luminescence (AID 2044); type: functional, cell-based;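 also: intracellular parasites grown in NIH/3T3 mouse fibroblasts as host cells; luminescent beta-galactosidase reporter signal from transgenic T. cruzi replicating inside host cells; inhibitors lower the luminescence signal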
# [6] = cytotoxicity toward NIH3T3 fibroblasts, dose response, counter-screen, cell-based, ATP luminescence, mouse fibroblasts (AID 2010); type: functional;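 also: cells exposed to compound for about 90 hours before reading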
# [7] = Luminescence Cell-Based Dose Response to Identify Activators of 5'UTR Stem-Loop Driven Prion Protein mRNA Translation in H4-C Neuroglioblastoma Cells. [Related pubchem assays: 1829 (Project Summary), 1814 (Primary HTS)]; type: functional
# [8] = Luminescence Cell-Based Dose Response HTS to Identify Activators of Luciferase Translation or Activity in H4 […] Cells. [Related pubchem assays: 1829 (Project Summary), 1814 (Primary HTS)]; type: functional
# H4 = assay: Luminescence Cell-Based Dose Response HTS to Identify Activators of 5'UTR Stem-Loop Driven Prion Protein mRNA Translation in H4 Neuroglioblastoma Cells. [Related pubchem assays: 1829 (Project Summary), 1814 (Primary HTS)]; type: functional; details: Homo sapiens
# [9] = Luminescence Cell-Based Dose Response to Identify Activators of Luciferase Translation or Activity in H4-C Neuroglioblastoma Cells. [Related pubchem assays: 1829 (Project Summary), 1814 (Primary HTS)]; type: functional
# [10] = Luminescence Cell-Based Dose Confirmation to Identify Activators of 5'UTR Stem-Loop Driven Alpha-Synuclein mRNA Translation in H4 Neuroglioblastoma Cells. [Related pubchem assays: 1829 (Project Summary), 1814 (Primary HTS)]; type: functional
# [11] = target: T4, Microphthalmia-associated transcription factor (Homo sapiens, UniProt O75030); assay: TRPM1 promoter luciferase signal decrease, dose response, MITF inhibitor project, cell-based, SK-MEL-5, cherry-picked, set 3 (AID 493073); type: functional
# T4 sequence (O75030 whole entry): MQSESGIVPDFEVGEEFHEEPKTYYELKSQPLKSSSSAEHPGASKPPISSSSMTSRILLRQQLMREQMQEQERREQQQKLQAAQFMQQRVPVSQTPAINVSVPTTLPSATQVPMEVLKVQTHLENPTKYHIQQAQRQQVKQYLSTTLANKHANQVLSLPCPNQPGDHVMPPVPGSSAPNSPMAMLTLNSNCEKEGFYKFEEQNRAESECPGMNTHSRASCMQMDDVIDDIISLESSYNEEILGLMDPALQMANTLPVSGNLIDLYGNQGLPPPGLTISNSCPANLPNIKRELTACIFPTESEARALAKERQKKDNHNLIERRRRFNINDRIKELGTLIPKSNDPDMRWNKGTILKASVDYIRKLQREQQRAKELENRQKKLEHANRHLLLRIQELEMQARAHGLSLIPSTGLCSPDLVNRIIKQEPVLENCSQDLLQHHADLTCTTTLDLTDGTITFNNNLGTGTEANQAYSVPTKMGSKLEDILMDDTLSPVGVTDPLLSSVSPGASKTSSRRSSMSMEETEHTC
# [12] = A549 cell cytotoxicity, dose response, cytotoxicity control, plate reader, cherry-pick, antagonist series (AID 743412); type: functional, cell-based
# [13] = HepG2 cell cytotoxicity, dose response, cytotoxicity control, plate reader, cherry-pick, antagonist series (AID 743416); type: functional, cell-based
# [14] = HEK293 cell cytotoxicity, dose response, cytotoxicity control, plate reader, cherry-picked samples (AID 743446); type: functional, cell-based
# Cytochrome P450 1A2 = target: T5, Cytochrome P450 1A2 (Homo sapiens, UniProt P05177);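 also: PubChem cytochrome P450 panel assay, CYP1A2 panel member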
# T5 sequence (P05177 whole entry): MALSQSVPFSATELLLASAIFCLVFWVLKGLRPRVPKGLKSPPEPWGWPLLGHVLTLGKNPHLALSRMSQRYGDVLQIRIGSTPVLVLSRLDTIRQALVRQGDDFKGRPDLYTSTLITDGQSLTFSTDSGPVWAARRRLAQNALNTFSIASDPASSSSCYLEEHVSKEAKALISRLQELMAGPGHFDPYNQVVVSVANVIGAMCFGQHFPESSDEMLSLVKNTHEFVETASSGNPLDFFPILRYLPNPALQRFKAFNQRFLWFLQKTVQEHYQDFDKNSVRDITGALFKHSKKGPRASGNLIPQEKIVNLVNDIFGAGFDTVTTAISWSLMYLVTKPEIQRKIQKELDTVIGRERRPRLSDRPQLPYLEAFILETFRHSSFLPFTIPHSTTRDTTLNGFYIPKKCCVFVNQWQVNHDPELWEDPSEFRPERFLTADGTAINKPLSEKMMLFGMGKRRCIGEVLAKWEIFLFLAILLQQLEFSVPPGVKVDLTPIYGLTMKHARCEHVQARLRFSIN
# Cytochrome P450 3A4 = Cytochrome P450 3A4 (Homo sapiens, UniProt P08684);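 also: CYP3A4 tested as one member of a cytochrome P450 panel screen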
# [15] = M. tuberculosis growth inhibition, HTS (AID 449762); type: functional
# [16] = Luminescence Cell-Based Dose Retest to Confirm Inhibitors of Cancer Stem Cells. [Related pubchem assays (depositor defined):AID2717, AID2721]; type: functional; details: Homo sapiens
# Large T antigen = Large T antigen (Simian virus 40, UniProt P03070); type: functional, Betapolyomavirus macacae;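 also: Confirmatory-stage PubChem screen for compounds that inhibit SV40 T antigen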
# Large T antigen, sequence (P03070 whole entry): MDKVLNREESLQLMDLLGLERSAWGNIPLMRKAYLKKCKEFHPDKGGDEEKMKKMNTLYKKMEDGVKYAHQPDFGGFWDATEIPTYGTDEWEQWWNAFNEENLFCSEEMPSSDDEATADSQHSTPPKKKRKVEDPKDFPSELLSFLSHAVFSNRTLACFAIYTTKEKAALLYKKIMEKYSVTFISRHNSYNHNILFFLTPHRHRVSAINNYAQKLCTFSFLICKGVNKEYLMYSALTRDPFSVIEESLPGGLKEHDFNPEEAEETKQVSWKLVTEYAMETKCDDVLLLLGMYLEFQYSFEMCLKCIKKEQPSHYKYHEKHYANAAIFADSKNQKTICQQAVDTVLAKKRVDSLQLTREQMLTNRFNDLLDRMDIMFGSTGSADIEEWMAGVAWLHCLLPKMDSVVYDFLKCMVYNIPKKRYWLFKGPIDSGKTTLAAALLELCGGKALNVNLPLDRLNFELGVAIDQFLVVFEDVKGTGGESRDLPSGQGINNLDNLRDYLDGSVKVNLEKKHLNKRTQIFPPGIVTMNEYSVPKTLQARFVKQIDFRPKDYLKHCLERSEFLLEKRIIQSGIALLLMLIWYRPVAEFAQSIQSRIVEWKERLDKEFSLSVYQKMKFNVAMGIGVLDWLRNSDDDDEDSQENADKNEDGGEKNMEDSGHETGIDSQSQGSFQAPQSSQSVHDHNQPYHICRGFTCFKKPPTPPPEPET
# [17] = target: Bifunctional protein GlmU (Mycobacterium tuberculosis, UniProt P9WMN3); assay: Inhibitors of Mycobacterial Glucosamine-1-phosphate acetyl transferase (GlmU). Secondary screen.; parameters: species or system Mycobacterium tuberculosis H37Rv
# [18] = target: Induced myeloid leukemia cell differentiation protein Mcl-1 (Homo sapiens, UniProt Q07820); type: functional
# Induced myeloid leukemia cell differentiation protein Mcl-1, sequence (Q07820 whole entry): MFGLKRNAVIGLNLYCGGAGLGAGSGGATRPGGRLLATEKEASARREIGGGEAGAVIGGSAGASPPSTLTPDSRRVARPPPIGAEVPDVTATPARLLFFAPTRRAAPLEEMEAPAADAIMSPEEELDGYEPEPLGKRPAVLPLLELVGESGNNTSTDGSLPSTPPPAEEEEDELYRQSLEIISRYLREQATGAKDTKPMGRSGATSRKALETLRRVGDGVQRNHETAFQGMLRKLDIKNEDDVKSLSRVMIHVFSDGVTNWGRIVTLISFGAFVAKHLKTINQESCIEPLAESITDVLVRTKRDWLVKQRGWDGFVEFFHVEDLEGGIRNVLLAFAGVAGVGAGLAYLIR
# [19] = target: Eukaryotic translation initiation factor 4E (Mus musculus, UniProt P63073); assay: eIF4E–eIF4G protein interaction inhibitors, dose response, biochemical, TR-FRET (AID 855); type: functional;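 also: potency for disrupting eIF4E binding to eIF4GI seen as loss of FRET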
# Eukaryotic translation initiation factor 4E, sequence (P63073 whole entry): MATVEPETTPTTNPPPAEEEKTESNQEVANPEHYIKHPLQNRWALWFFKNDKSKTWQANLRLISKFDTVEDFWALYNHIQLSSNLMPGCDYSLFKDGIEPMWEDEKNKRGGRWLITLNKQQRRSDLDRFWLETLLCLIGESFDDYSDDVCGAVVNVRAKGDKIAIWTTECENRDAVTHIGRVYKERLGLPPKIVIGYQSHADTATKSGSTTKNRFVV
# Kallikrein-7 = Kallikrein-7 (Homo sapiens, UniProt P49862); assay: Fluorescence Intensity-based biochemical primary high throughput dose response assay to identify activators of kallikrein-7 (K7) zymogen.
# Kallikrein-7, sequence (P49862 whole entry): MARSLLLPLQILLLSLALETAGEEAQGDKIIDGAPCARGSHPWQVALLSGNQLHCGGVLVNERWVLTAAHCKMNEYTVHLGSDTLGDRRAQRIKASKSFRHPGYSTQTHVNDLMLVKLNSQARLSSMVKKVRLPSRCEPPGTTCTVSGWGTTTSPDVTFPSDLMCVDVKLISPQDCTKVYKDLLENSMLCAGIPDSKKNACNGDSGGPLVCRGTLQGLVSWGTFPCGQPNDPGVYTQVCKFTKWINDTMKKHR
# Genome polyprotein = Genome polyprotein (dengue virus type 2, UniProt P29990); assay: Dengue-2 NS5 methyltransferase inhibitors, primary screen, biochemical, confirmation dose response (AID 588689); type: functional
# [20] = target: Ras and Rab interactor 1/Tyrosine-protein kinase ABL1 (Homo sapiens, UniProt P00519+Q13671); type: functional;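 also: biochemical TR-FRET dose-response test measuring inhibition of binding between Rin1 and Abl proteins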
# Caspase-6 = Caspase-6 (Homo sapiens, UniProt P55212); assay: human caspase-6 inhibitors, dose response, biochemical, VEID-R110 fluorescence, cherry-pick (AID 720632)
# Caspase-6, sequence (P55212 24-179 limits assumed): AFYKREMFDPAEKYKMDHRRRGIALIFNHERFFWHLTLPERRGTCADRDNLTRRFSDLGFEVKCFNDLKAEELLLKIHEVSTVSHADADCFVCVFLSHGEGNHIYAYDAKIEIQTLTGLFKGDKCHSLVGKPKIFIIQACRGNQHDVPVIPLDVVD
# Caspase-6, sequence (P55212 194-293 limits assumed): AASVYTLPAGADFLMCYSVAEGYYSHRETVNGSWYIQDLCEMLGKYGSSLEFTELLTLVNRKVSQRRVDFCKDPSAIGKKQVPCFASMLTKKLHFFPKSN
# [21] = target: G-protein coupled receptor 183 (Homo sapiens, UniProt P32249); assay: SAR confirmation of small molecule antagonists of the EBI2 receptor via a luminescent beta-arrestin assa.; type: functional
# G-protein coupled receptor 183, sequence (P32249 whole entry): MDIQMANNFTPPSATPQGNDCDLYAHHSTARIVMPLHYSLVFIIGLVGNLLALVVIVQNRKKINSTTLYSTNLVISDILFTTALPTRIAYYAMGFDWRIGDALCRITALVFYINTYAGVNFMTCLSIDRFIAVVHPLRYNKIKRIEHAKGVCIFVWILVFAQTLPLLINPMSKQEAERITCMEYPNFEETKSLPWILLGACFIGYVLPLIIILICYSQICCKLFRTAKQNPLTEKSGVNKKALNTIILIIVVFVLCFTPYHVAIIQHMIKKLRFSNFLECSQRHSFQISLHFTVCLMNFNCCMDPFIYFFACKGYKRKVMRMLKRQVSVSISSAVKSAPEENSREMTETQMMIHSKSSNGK
# [22] = target: RNA-editing ligase 1, mitochondrial (Trypanosoma brucei brucei, UniProt P86926); assay: TbREL1 ligase inhibitors, dose response, biochemical, fluorescence, Trypanosoma brucei (AID 1117295); type: functional
# RNA-editing ligase 1, mitochondrial, sequence (P86926 whole entry): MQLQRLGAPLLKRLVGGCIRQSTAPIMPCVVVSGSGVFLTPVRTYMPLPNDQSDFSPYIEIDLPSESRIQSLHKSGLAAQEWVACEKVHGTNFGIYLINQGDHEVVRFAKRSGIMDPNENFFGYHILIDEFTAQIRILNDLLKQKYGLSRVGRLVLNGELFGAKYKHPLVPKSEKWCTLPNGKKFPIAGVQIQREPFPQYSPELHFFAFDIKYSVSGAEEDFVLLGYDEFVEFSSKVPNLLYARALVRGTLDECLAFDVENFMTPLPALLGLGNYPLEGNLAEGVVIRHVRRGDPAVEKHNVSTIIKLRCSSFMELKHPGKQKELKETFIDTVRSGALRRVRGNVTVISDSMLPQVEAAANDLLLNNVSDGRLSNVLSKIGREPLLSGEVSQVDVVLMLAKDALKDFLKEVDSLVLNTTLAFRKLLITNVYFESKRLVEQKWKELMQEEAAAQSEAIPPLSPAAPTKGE
# Mitogen-activated protein kinase 10, sequence (P53779 whole entry): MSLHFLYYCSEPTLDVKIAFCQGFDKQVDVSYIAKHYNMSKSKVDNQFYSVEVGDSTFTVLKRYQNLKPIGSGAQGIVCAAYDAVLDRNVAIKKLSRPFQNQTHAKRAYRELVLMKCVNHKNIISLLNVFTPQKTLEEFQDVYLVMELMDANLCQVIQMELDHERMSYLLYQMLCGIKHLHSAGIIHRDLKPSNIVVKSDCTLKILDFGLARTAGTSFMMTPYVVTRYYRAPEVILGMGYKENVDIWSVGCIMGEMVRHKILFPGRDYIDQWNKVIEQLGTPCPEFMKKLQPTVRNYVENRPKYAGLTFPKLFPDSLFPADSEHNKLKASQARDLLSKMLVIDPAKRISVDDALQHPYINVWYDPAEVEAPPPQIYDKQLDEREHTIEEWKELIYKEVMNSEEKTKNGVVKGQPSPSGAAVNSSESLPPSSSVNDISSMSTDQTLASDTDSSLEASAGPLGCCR
# Cytochrome P450 2C9, sequence (P11712 whole entry): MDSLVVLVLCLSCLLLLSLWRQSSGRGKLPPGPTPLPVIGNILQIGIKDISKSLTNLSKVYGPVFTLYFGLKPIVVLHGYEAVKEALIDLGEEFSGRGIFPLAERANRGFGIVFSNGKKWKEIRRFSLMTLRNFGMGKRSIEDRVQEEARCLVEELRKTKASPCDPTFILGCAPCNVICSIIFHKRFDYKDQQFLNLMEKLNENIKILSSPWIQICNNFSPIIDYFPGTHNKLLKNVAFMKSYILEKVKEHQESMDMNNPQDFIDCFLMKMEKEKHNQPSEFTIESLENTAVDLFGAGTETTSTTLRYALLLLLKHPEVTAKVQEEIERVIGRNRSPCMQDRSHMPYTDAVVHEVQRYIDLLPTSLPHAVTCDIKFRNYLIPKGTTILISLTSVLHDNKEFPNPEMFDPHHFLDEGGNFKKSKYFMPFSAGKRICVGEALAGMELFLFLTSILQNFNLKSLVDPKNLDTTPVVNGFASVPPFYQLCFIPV
smiles,measurement,setting,value
Nc1nc(-c2ccccc2)cc(-c2ccccc2O)n1,IC50,[1],40.6 µM (not active)
same,AC50,Cytochrome P450 2C9,3.55 µM (inconclusive)
CC(=O)Nc1ccc(NC2=Nc3ccccc3N3C2=Nc2c(c(C)nn2-c2ccccc2)C3c2ccccc2)cc1 (configuration not stated),IC50,Ephrin type-A receptor 4,16.6 µM (active)
N#Cc1c(N)nc(SCc2ccncc2)c(C#N)c1-c1cccs1,EC50,[2],> 300 µM (not active)
same,EC50,[3],> 300 µM (not active)
same,EC50,[4],> 195 µM (not active)
same,EC50,[5],0.145 µM (active)
same,EC50,[6],17.1 µM (active)
same,IC50,[1],54.8 µM (not active)
O=c1cccccc1NN=C1CCCCCC1,EC50,[7],0.608 µM (active)
same,EC50,[8],< 0.1 µM (active)
same,EC50,H4,> 120 µM (not active)
same,EC50,[9],0.385 µM (active)
same,EC50,[10],0.446 µM (active)
O=C(Cn1ncc(Cl)c(Cl)c1=O)N1CCOCC1,AC50,[11],9.82 µM (active)
same,AC50,[12],38 µM (active)
same,AC50,[13],34.4 µM (active)
same,AC50,[14],13.7 µM (active)
COc1cc(/C=C2\SC(=S)N(Nc3ccccc3)C2=O)cc(OC)c1OC,IC50,Ephrin type-A receptor 4,2.64 µM (active)
same,AC50,Cytochrome P450 1A2,7.08 µM (inconclusive)
same,AC50,Cytochrome P450 3A4,15.8 µM (inconclusive)
CCCCCCSc1nsc(NC(=O)CC(C)C)n1,IC50,[15],> 100 µM (active)
same,AC50,[16],2.02 µM (active)
O=C1C(=Cc2ccc(Br)o2)C(=O)c2ccccc21,IC50,Large T antigen,93.7 µM (active)
same,IC50,[17],18.5 µM (active)
same,IC50,[18],1.92 µM (active)
same,IC50,[19],20.1 µM (active)
O=C(O)CCC(=O)NN1C(=O)c2ccccc2NC1c1ccco1 (configuration not stated),EC50,Kallikrein-7,> 69.5 µM (inactive)
O=C(Nc1ccc(Cl)cc1)c1ccc(OCC2CCCO2)cc1 (configuration not stated),EC50,[7],0.924 µM (active)
same,EC50,[9],0.301 µM (active)
same,EC50,[10],> 12 µM (not active)
Oc1ccc(/C=N/N2CCCCC2)c(O)c1O,EC50,[2],20.3 µM (active)
same,EC50,[3],> 300 µM (inconclusive)
same,IC50,Genome polyprotein,> 100 µM (active)
same,IC50,[20],> 73.5 µM (inactive)
same,AC50,Caspase-6,24.2 µM (active)
Cc1ccccc1NC(=O)COC(=O)COc1ccc2ccc(=O)oc2c1,EC50,Kallikrein-7,31.9 µM (inactive)
COc1cccc(C#Cc2ccc([C@@H]3[C@@H](CO)N(C(=O)C4CCC4)[C@H]3C#N)cc2)c1,AC50,[12],30.9 µM (active)
same,AC50,[13],26.8 µM (active)
same,AC50,[14],46.8 µM (active)
Cc1nnc(N/N=C/c2cccc(C(F)(F)F)c2)n1N,AC50,Caspase-6,34.8 µM (active)
N#Cc1ccc(C(=O)N2CCN(C(=O)/C=C/c3ccc(Br)cc3)CC2)cc1,IC50,[21],0.00174 µM (active)
O=C(/C=C/c1ccc(F)cc1)N1CCN(S(=O)(=O)c2cccc(Br)c2)CC1,IC50,[21],0.0175 µM (active)
CC(C)C[C@H](NC1(C(=O)NC2CCCCC2)CCN(C)CC1)C(=O)NCC(c1ccccc1)c1ccccc1,IC50,[22],> 96.6 µM (inactive)
COC(=O)C1=C(C)N(Cc2ccccc2C(F)(F)F)C(NCc2ccc3c(c2)OCO3)=NC1c1ccccc1 (configuration not stated),IC50,[22],> 96.6 µM (inactive)
Nc1ccc2c(c1)Cc1ccccc1-2,IC50,Large T antigen,3.52 µM (active)
same,IC50,[15],> 100 µM (active)
